Values after ≈ are worked out from the molar mass of the structure shown. Active and inactive are the calls of the source. The calls are words filed in the database; no cut-off is given here.
Tests used:
[1] = target: Ribosomal protein S6 kinase alpha-1 (Homo sapiens) (UniProt Q15418); experiment: Inhibition of RSK1 kinase (unknown origin) at 0.1 uM
Cytochrome P450 3A4 [2] = target: T1, Cytochrome P450 3A4 (Homo sapiens, UniProt P08684); experiment: Inhibition of CYP3A4 in human liver microsomes using testosterone as substrate incubated for 30 mins by LC-MS/MS analysis; format: ADME
[3] = Metabolic stability in CD1 mouse liver microsomes assessed as compound degradation in presence of NADPH measured after 20 mins; format: ADME, Microsome; conditions: read-out: Drug degradation
[4] = target: T2, Serine/threonine-protein kinase Sgk1 (Mus musculus, UniProt Q9WVC6); experiment: Inhibition of mouse SGK1 in presence 500 uM presence of ATP
T2 sequence (Q9WVC6 whole entry): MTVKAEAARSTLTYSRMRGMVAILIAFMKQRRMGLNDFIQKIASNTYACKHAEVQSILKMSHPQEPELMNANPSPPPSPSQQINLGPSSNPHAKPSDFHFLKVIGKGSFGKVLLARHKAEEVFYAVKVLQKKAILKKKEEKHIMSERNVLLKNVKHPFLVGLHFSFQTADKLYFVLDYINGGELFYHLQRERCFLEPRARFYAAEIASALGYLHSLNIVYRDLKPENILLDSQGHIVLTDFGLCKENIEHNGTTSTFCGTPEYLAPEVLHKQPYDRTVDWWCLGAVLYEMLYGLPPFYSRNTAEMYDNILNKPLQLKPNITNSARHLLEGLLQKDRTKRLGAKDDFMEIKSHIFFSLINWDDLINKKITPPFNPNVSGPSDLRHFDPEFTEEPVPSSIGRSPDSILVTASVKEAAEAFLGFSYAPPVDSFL

[5] = Inhibition of rat SGK1 in presence 500 uM presence of ATP
[6] = Distribution coefficient, logD of compound at pH 7.4 by chromatographic analysis; format: physicochemical; conditions: octanol/water
[7] = Aqueous solubility of the compound at pH 7.4; format: physicochemical
[8] = Effect on chondrocyte hypertrophic differentiation mouse ATDC-5 cells assessed as inhibition of […] gene expression incubated for 2 weeks followed by compound added and every 3 days medium is changed measured after 2 weeks by RT-qPCR analysis; format: functional, cell-based
[9] = Permeability in human Caco2 cells at 20 uM incubated for 120 mins by ESI-MS/MS analysis; format: ADME, cell-based; conditions: Caco-2, read-out: permeability
[10] = Chemical stability of the compound at pH 7.4 measured after 24 hrs; format: physicochemical; conditions: buffer, read-out: Stability
[11] = Metabolic stability in human liver microsomes assessed as compound degradation in presence of NADPH measured after 20 mins; format: ADME, Microsome; conditions: read-out: Drug degradation
[12] = Metabolic stability in Sprague-Dawley rat liver microsomes assessed as compound degradation in presence of NADPH measured after 20 mins; format: ADME, Microsome; conditions: read-out: Drug degradation
Cytochrome P450 3A4 [13] = target: T1, Cytochrome P450 3A4; experiment: Inhibition of CYP3A4 in human liver microsomes using midazolam as substrate incubated for 10 mins by LC-MS/MS analysis; format: ADME
CYP3A4 = CYP3A4 (Homo sapiens, UniProt P08684); experiment: Inhibition of CYP3A4 in human liver microsomes by measuring maximum efficacy; format: ADME
hERG (KCNH2) [14] = target: T3, hERG (KCNH2) (Homo sapiens, UniProt Q12809); experiment: Inhibition of human ERG at 1 uM relative to control; format: toxicity
hERG (KCNH2) [15] = target: T3, hERG (KCNH2); experiment: Inhibition of human ERG at 10 uM; format: toxicity
Salmonella typhimurium [16] = experiment: Mutagenicity in Salmonella typhimurium […] in presence of S9 fraction by ames test; format: toxicity, organism-based; conditions: salmonella enterica subsp. enterica serovar typhimurium
Salmonella typhimurium [17] = experiment: Mutagenicity in Salmonella typhimurium […] by ames test; format: toxicity, organism-based; conditions: salmonella enterica subsp. enterica serovar typhimurium
Femur [18] = experiment: (§1) Induction of chondrogenesis in femoral head cartilage isolated from C57BL/6 mouse model of osteoarthritis assessed as reduction in intensity of collagen type x staining incubated for 2 weeks in hypertrophic condition and twice for week medium is changed by immunohistochemical staining based analysis; format: functional, tissue-based
Femur [19] = experiment: as §1, with “x staining at 2 uM incubated for” for “x staining incubated for”; format: functional, tissue-based
Femur [20] = experiment: as §1, with “x staining at 10 uM incubated for” for “x staining incubated for”; format: functional, tissue-based
[21] = Solubility of the compound in FeSSIF at pH 5.0; format: physicochemical
[22] = target: T4, Serine/threonine-protein kinase Sgk1 (Homo sapiens, UniProt O00141); experiment: Inhibition of recombinant human SGK1 expressed in baculovirus expression system using 5-carboxyfluorescein -RPRAATF-NH2 as substrate preincubated for 30 mins followed by substrate addition in presence of 10 uM ATP and measured after 60 mins by microfluidics assay
T4 sequence (O00141 whole entry): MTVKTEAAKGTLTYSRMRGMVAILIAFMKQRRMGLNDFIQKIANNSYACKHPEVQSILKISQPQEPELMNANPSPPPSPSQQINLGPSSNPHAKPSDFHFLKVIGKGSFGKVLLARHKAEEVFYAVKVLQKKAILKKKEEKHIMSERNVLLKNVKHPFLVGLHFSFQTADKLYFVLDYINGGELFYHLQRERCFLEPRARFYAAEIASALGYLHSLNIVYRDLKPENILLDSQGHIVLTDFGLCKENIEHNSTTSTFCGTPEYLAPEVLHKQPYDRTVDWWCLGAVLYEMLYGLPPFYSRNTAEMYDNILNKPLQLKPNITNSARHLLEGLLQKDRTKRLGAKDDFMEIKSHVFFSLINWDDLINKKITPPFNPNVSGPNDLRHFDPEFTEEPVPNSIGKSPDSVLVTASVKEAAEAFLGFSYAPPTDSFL

[23] = target: T4, Serine/threonine-protein kinase Sgk1; experiment: Inhibition of recombinant human SGK1 expressed in baculovirus expression system using 5-carboxyfluorescein -RPRAATF-NH2 as substrate preincubated for 30 mins followed by substrate addition in presence of 500 uM ATP and measured after 60 mins by microfluidics assay
[24] = Intrinsic clearance in human hepatocytes assessed per 10^-6 cells; format: ADME, cell-based, Hepatocyte
Homo sapiens = organism: Homo sapiens; experiment: Inhibition of p70S6Kb kinase (unknown origin) at 0.1 uM
[25] = Cmax in Lewis rat plasma at 30 mg/kg, po measured after 8 hrs; format: ADME, organism-based; design: route oral, time 8 hrs, dose 30 mg/kg
[26] = Tmax in Lewis rat plasma at 30 mg/kg, po measured after 8 hrs; format: ADME, organism-based
[27] = AUC (0 to 24 hrs) in Lewis rat plasma at 30 mg/kg, po measured after 8 hrs; format: ADME, organism-based; design: route oral, dose 30 mg/kg, time 8 hrs
[28] = Cmax in Lewis rat femoral head cartilage at 30 mg/kg, po measured after 8 hrs; format: ADME, organism-based, Femur; design: route oral, time 8 hrs, dose 30 mg/kg
[29] = Tmax in Lewis rat femoral head cartilage at 30 mg/kg, po measured after 8 hrs; format: ADME, organism-based, Femur
[30] = AUC (0 to 24 hrs) in Lewis rat femoral head cartilage at 30 mg/kg, po measured after 8 hrs; format: ADME, organism-based, Femur; design: route oral, dose 30 mg/kg, time 8 hrs
[31] = Ratio of AUC(0 to 24 hrs) in femoral head to plasma in rat measured after 1 hrs; format: ADME, Bone/Plasma; conditions: read-out: Selectivity ratio
[32] = Ratio of AUC(0 to 24 hrs) in femoral head to plasma in rat measured after 24 hrs; format: ADME, Bone/Plasma; conditions: read-out: Selectivity ratio
[33] = Initial plasma concentration in C57BL/6 mouse at 3 mg/kg, iv; format: ADME, organism-based
[34] = Half life in C57BL/6 mouse plasma at 3 mg/kg, iv; format: ADME, organism-based
[35] = AUC (0 to 24 hrs) in C57BL/6 mouse at 3 mg/kg, iv; format: ADME, organism-based; design: time < 24 hr, route intravenous, dose 3 mg/kg; conditions: in vivo
[36] = Intrinsic clearance in C57BL/6 mouse at 3 mg/kg, iv; format: ADME, organism-based; conditions: in vivo
[37] = Volume of distribution at steady state in C57BL/6 mouse at 3 mg/kg, iv qd; format: ADME, organism-based; conditions: in vivo, read-out: Vdss
[38] = Cmax in C57BL/6 mouse plasma at 30 mg/kg, po measured after 8 hrs; format: ADME, organism-based; design: route oral, time 8 hrs, dose 30 mg/kg
[39] = Half life in C57BL/6 mouse plasma at 30 mg/kg, po measured after 8 hrs; format: ADME, organism-based
[40] = AUC (0 to 24 hrs) in C57BL/6 mouse at 30 mg/kg, po; format: ADME, organism-based; design: time < 24 hr, route oral, dose 30 mg/kg; conditions: in vivo
[41] = Tmax in C57BL/6 mouse plasma at 30 mg/kg, po; format: ADME, organism-based
[42] = Oral bioavailability in C57BL/6 mouse at 30 mg/kg; format: ADME, organism-based; conditions: in vivo

T1 sequence (P08684 whole entry): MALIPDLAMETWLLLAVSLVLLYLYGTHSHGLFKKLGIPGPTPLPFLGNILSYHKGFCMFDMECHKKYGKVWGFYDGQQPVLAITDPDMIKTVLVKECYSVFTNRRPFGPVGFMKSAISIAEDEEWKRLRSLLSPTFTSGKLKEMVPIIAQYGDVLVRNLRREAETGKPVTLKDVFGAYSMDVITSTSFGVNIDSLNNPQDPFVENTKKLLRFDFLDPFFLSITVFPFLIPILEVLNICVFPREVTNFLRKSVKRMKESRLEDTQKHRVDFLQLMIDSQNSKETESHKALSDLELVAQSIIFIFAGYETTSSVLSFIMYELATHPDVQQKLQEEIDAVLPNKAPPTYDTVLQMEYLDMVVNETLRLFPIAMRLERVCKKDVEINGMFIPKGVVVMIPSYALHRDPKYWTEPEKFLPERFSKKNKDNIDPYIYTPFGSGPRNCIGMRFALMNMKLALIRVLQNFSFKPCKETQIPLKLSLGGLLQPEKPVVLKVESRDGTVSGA
T3 sequence (Q12809 whole entry): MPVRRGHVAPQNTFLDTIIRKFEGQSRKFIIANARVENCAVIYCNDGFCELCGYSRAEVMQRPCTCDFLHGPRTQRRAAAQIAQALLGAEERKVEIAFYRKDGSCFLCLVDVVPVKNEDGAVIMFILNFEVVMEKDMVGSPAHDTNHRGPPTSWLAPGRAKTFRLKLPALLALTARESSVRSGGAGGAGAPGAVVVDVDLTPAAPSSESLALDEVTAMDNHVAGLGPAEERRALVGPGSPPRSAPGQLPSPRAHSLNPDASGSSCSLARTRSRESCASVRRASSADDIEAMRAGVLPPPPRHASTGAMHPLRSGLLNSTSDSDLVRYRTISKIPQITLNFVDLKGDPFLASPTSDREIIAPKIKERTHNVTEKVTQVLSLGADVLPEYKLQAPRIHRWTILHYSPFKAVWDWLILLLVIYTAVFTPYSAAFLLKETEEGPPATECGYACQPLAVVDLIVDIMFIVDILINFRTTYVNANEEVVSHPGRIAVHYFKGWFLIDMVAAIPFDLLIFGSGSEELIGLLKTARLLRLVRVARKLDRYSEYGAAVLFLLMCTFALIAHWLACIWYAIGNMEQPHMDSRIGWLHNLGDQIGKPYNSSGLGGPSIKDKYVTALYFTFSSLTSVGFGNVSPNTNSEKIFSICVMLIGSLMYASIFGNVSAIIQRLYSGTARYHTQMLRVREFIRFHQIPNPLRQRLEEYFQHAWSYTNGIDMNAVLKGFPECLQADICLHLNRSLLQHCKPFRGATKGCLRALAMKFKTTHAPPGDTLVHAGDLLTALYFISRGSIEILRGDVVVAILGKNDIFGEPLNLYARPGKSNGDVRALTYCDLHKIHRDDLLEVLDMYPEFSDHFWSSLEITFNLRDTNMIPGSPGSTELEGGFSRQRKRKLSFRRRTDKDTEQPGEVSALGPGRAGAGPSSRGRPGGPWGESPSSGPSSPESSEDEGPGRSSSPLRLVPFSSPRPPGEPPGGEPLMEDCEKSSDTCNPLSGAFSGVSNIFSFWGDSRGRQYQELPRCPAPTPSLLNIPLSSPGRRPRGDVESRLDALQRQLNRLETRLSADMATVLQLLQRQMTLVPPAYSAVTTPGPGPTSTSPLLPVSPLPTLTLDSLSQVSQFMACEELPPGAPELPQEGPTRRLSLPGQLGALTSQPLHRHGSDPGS
CYP3A4, sequence (P08684 whole entry): as the sequence (P08684 whole entry) above
Ribosomal protein S6 kinase alpha-1 (Homo sapiens), sequence (Q15418 whole entry): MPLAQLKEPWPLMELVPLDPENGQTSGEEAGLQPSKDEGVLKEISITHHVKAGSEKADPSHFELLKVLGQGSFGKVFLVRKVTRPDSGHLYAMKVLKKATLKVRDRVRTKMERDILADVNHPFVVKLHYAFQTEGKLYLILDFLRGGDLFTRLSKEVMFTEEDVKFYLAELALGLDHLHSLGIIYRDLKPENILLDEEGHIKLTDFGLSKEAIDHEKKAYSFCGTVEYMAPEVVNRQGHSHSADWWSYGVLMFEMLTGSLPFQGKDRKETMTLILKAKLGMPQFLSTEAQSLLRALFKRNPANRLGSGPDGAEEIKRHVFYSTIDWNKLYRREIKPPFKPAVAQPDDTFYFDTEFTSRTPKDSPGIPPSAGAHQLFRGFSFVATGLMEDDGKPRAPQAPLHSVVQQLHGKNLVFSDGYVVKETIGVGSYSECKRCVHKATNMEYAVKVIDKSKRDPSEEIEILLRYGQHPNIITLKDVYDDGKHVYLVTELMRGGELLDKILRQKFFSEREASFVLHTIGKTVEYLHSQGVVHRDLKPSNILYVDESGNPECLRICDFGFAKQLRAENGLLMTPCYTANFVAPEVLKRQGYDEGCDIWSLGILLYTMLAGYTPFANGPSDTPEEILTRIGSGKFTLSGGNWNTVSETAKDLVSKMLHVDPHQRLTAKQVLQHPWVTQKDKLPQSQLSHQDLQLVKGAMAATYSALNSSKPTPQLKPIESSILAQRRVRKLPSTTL

SMILES: O=S(=O)(Nc1ccc(-c2nc(O[C@H]3CC[C@H](O)CC3)c3cn[nH]c3n2)cc1)c1cc(Cl)ccc1F
- inhibition [1]: 57%
- IC50 (Cytochrome P450 3A4 [2]): > 3 µM
- metabolised at 20 min [3]: 6%
- IC50 [4]: 253 nM
- IC50 [5]: 358 nM
- chromatographic logD [6]: 2.8
- solubility [7]: 4 µg/mL (≈ 7.72 µM)
- IC50 [8]: 50 nM
- Papp at 2 h, 20 µM [9]: 8.6 ×10⁻⁶ cm/s
- remaining at 24 h [10]: 100%
- metabolised at 20 min [11]: 13%
- metabolised at 20 min [12]: 7%
- IC50 (Cytochrome P450 3A4 [13]): > 3 µM
- Emax (CYP3A4): 13%
- inhibition at 1 µM (hERG (KCNH2) [14]): 0%
- inhibition at 10 µM (hERG (KCNH2) [15]): 65%
- Activity (Salmonella typhimurium [16]): Non-Toxic
- Activity (Salmonella typhimurium [17]): Non-Toxic
- Activity (Femur [18]): Active
- Activity (Femur [19]): inactive
- Activity (Femur [20]): Active

SMILES: Cc1n[nH]c2nc(-c3ccc(NS(=O)(=O)c4cc(Cl)ccc4F)cc3)nc(OC3CCN(C(C)C)CC3)c12
- inhibition [1]: 64%
- solubility [21]: 281 µg/mL (≈ 503 µM)
- IC50 (Cytochrome P450 3A4 [2]): > 30 µM
- metabolised at 20 min [3]: 15%
- IC50 [22]: 2 nM
- IC50 [23]: 3 nM
- IC50 [4]: 171 nM
- IC50 [5]: 224 nM
- chromatographic logD [6]: 1.3
- solubility [7]: < 1 µg/mL
- IC50 [8]: 70 nM
- Papp at 2 h, 20 µM [9]: 4.6 ×10⁻⁶ cm/s
- remaining at 24 h [10]: 100%
- metabolised at 20 min [11]: 9%
- metabolised at 20 min [12]: 12%
- CLH [24]: 0.042 mL/h
- IC50 (Cytochrome P450 3A4 [13]): > 30 µM
- Emax (CYP3A4): 0%
- inhibition at 1 µM (hERG (KCNH2) [14]): 60%
- inhibition at 10 µM (hERG (KCNH2) [15]): 91%
- inhibition (Homo sapiens): 58%
- Activity (Salmonella typhimurium [16]): Non-Toxic
- Activity (Salmonella typhimurium [17]): Non-Toxic
- Cmax [25]: 4200 ng/mL
- Tmax [26]: 8 h
- AUC(0-t) at 8 h [27]: 60100 ng·h/mL
- Cmax [28]: 1200 ng/g
- Tmax [29]: 8 h
- AUC(0-t) at 8 h [30]: 16900 ng·h/mL
- Kp at 1 h [31]: 0.1
- Kp at 24 h [32]: 1.1
- C0 [33]: 2200 ng/mL
- half-life [34]: 126 min
- AUC(0-t) at 24 h [35]: 3200 ng·h/mL
- CL [36]: 1 L/h/kg
- Vd [37]: 2.4 L/kg
- Cmax [38]: 2200 ng/mL
- half-life [39]: 288 min
- AUC(0-t) at 24 h [40]: 22800 ng·h/mL
- Tmax [41]: 3.3 h
- bioavailability [42]: 72%
